# Laboratory results reported in ChEMBL document CHEMBL4229543, “Squaramides as novel class I and IIB histone deacetylase inhibitors for topical treatment of cutaneous t-cell lymphoma” (Bioorg Med Chem Lett, 2018).
# Test system: not listed separately
# Assay: Clearance in human hepatocytes assessed per million cells at 1 uM after 5 to 90 mins by LC-MS/MS analysis
# Assay type: ADME, cell-based, Hepatocyte
# Conditions: read-out: CLH
row,SMILES,hepatocyte CLint at 1 µM
1,COc1ccc(Nc2c(NC3(CCCCC(=O)NO)CCC3)c(=O)c2=O)cc1,17 µL/min/1e6 cells
2,C[C@H](CCCCC(=O)NO)Nc1c(Nc2ccc(OC(F)(F)F)cc2)c(=O)c1=O,31 µL/min/1e6 cells
3,CN(C)c1ccc(Nc2c(NCCCCCC(=O)NO)c(=O)c2=O)cc1,< 5 µL/min/1e6 cells
4,CCC(CCCCC(=O)NO)Nc1c(Nc2ccc(C(F)(F)F)cc2)c(=O)c1=O (racemic),25 µL/min/1e6 cells
5,COc1ccc(Nc2c(NC(C)(C)CCCCC(=O)NO)c(=O)c2=O)cc1,9.2 µL/min/1e6 cells
6,Cc1ccc([C@H](C)Nc2c(NCCCCCC(=O)NO)c(=O)c2=O)cc1,< 5 µL/min/1e6 cells
7,C[C@@H](CCCCC(=O)NO)Nc1c(Nc2ccc(N(C)C)cc2)c(=O)c1=O,3.6 µL/min/1e6 cells
8,Cc1ccccc1[C@H](C)Nc1c(NCCCCCC(=O)NO)c(=O)c1=O,< 5 µL/min/1e6 cells
9,C[C@H](CCCCC(=O)NO)Nc1c(Nc2ccc(N(C)C)cc2)c(=O)c1=O,< 5 µL/min/1e6 cells
10,CC(CCCCC(=O)NO)Nc1c(Nc2ccc(C(F)(F)F)cc2)c(=O)c1=O (racemic),21 µL/min/1e6 cells
11,COc1cc(Nc2c(NCCCCCC(=O)NO)c(=O)c2=O)ccc1N(C)C,< 5 µL/min/1e6 cells

# Continued, values first:
row,hepatocyte CLint at 1 µM,SMILES
1,< 4.8 µL/min/1e6 cells,O=C(CCCCCNc1c(Nc2ccccc2)c(=O)c1=O)NO
2,< 5 µL/min/1e6 cells,CC[C@H](Nc1c(NCCCCCC(=O)NO)c(=O)c1=O)c1ccccc1
3,< 5 µL/min/1e6 cells,Cc1ccccc1Nc1c(NCCCCCC(=O)NO)c(=O)c1=O
4,18 µL/min/1e6 cells,Cc1cccc(Nc2c(NCCCCCC(=O)NO)c(=O)c2=O)c1
5,< 5 µL/min/1e6 cells,C[C@H](Nc1c(NCCCCCC(=O)NO)c(=O)c1=O)c1ccccc1

# Test system: not listed separately
# Assay: Solubility in PG/EtOH (96%) at 30 mg/mL after 24 hrs by UV-spectrometric method
# Assay type: physicochemical
# Conditions: PG/EtOH (96%)
row,SMILES,solubility at 24 h
1,C[C@H](CCCCC(=O)NO)Nc1c(Nc2ccc(OC(F)(F)F)cc2)c(=O)c1=O,70000 µM
2,CN(C)c1ccc(Nc2c(NCCCCCC(=O)NO)c(=O)c2=O)cc1,1400 µM
3,CCC(CCCCC(=O)NO)Nc1c(Nc2ccc(C(F)(F)F)cc2)c(=O)c1=O (racemic),25000 µM
4,Cc1ccc([C@H](C)Nc2c(NCCCCCC(=O)NO)c(=O)c2=O)cc1,5600 µM
5,C[C@@H](CCCCC(=O)NO)Nc1c(Nc2ccc(N(C)C)cc2)c(=O)c1=O,28000 µM
6,Cc1ccccc1[C@H](C)Nc1c(NCCCCCC(=O)NO)c(=O)c1=O,47000 µM
7,C[C@H](CCCCC(=O)NO)Nc1c(Nc2ccc(N(C)C)cc2)c(=O)c1=O,27000 µM
8,CC(CCCCC(=O)NO)Nc1c(Nc2ccc(C(F)(F)F)cc2)c(=O)c1=O (racemic),20000 µM
9,COc1cc(Nc2c(NCCCCCC(=O)NO)c(=O)c2=O)ccc1N(C)C,2600 µM

# More lines, now with the values ahead:
row,solubility at 24 h,SMILES
1,2200 µM,O=C(CCCCCNc1c(Nc2ccccc2)c(=O)c1=O)NO
2,57000 µM,CC[C@H](Nc1c(NCCCCCC(=O)NO)c(=O)c1=O)c1ccccc1
3,12000 µM,Cc1ccccc1Nc1c(NCCCCCC(=O)NO)c(=O)c1=O
4,11000 µM,Cc1cccc(Nc2c(NCCCCCC(=O)NO)c(=O)c2=O)c1
5,28000 µM,C[C@H](Nc1c(NCCCCCC(=O)NO)c(=O)c1=O)c1ccccc1

# Test system: not listed separately
# Assay: Solubility in pH 7.4 phosphate buffer solution at 100 uM after 24 hrs by HPLC method
# Assay type: physicochemical
# Conditions: phosphate buffer, pH 7.4
row,SMILES,"solubility at 24 h, 100 µM"
1,COc1ccc(Nc2c(NC3(CCCCC(=O)NO)CCC3)c(=O)c2=O)cc1,82 µM
2,C[C@H](CCCCC(=O)NO)Nc1c(Nc2ccc(OC(F)(F)F)cc2)c(=O)c1=O,27 µM
3,CN(C)c1ccc(Nc2c(NCCCCCC(=O)NO)c(=O)c2=O)cc1,12 µM
4,CCC(CCCCC(=O)NO)Nc1c(Nc2ccc(C(F)(F)F)cc2)c(=O)c1=O (racemic),6.6 µM
5,COc1ccc(Nc2c(NC(C)(C)CCCCC(=O)NO)c(=O)c2=O)cc1,99 µM
6,Cc1ccc([C@H](C)Nc2c(NCCCCCC(=O)NO)c(=O)c2=O)cc1,76 µM
7,C[C@@H](CCCCC(=O)NO)Nc1c(Nc2ccc(N(C)C)cc2)c(=O)c1=O,89 µM
8,Cc1ccccc1[C@H](C)Nc1c(NCCCCCC(=O)NO)c(=O)c1=O,92 µM
9,C[C@H](CCCCC(=O)NO)Nc1c(Nc2ccc(N(C)C)cc2)c(=O)c1=O,80 µM
10,CC(CCCCC(=O)NO)Nc1c(Nc2ccc(C(F)(F)F)cc2)c(=O)c1=O (racemic),30 µM
11,COc1cc(Nc2c(NCCCCCC(=O)NO)c(=O)c2=O)ccc1N(C)C,93 µM

# Other lines, results leading:
row,"solubility at 24 h, 100 µM",SMILES
1,47 µM,O=C(CCCCCNc1c(Nc2ccccc2)c(=O)c1=O)NO
2,75 µM,CC[C@H](Nc1c(NCCCCCC(=O)NO)c(=O)c1=O)c1ccccc1
3,89 µM,Cc1ccccc1Nc1c(NCCCCCC(=O)NO)c(=O)c1=O
4,79 µM,Cc1cccc(Nc2c(NCCCCCC(=O)NO)c(=O)c2=O)c1
5,73 µM,C[C@H](Nc1c(NCCCCCC(=O)NO)c(=O)c1=O)c1ccccc1

# Target: Histone deacetylase 1 (Homo sapiens, UniProt Q13547)
# Assay: Inhibition of human recombinant HDAC1 using Fluor de Lys as substrate after 2 hrs by fluorescence method
# Conditions: not given
# Sequence of Histone deacetylase 1 (Q13547 whole entry): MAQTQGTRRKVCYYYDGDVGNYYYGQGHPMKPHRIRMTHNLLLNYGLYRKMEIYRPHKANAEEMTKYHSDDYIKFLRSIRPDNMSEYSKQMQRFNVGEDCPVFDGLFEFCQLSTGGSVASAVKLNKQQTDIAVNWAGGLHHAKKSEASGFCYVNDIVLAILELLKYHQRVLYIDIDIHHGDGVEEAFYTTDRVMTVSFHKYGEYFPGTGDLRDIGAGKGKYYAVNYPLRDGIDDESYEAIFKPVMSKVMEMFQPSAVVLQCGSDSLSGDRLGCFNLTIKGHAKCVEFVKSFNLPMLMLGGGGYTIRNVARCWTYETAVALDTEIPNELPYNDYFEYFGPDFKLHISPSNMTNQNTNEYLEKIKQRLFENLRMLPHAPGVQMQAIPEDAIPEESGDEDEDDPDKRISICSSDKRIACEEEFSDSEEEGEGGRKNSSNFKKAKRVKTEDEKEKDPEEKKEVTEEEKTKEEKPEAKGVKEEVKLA
row,SMILES,Ki
1,COc1ccc(Nc2c(NC3(CCCCC(=O)NO)CCC3)c(=O)c2=O)cc1,0.063 nM
2,C[C@H](CCCCC(=O)NO)Nc1c(Nc2ccc(OC(F)(F)F)cc2)c(=O)c1=O,0.58 nM
3,CN(C)c1ccc(Nc2c(NCCCCCC(=O)NO)c(=O)c2=O)cc1,0.91 nM
4,CCC(CCCCC(=O)NO)Nc1c(Nc2ccc(C(F)(F)F)cc2)c(=O)c1=O (racemic),0.51 nM
5,COc1ccc(Nc2c(NC(C)(C)CCCCC(=O)NO)c(=O)c2=O)cc1,0.056 nM
6,Cc1ccc([C@H](C)Nc2c(NCCCCCC(=O)NO)c(=O)c2=O)cc1,2.3 nM
7,C[C@@H](CCCCC(=O)NO)Nc1c(Nc2ccc(N(C)C)cc2)c(=O)c1=O,4.3 nM
8,Cc1ccccc1[C@H](C)Nc1c(NCCCCCC(=O)NO)c(=O)c1=O,2.3 nM
9,C[C@H](CCCCC(=O)NO)Nc1c(Nc2ccc(N(C)C)cc2)c(=O)c1=O,2.7 nM
10,CC(CCCCC(=O)NO)Nc1c(Nc2ccc(C(F)(F)F)cc2)c(=O)c1=O (racemic),0.28 nM
11,COc1cc(Nc2c(NCCCCCC(=O)NO)c(=O)c2=O)ccc1N(C)C,0.5 nM

# The remaining lines, values ahead:
row,Ki,SMILES
1,0.29 nM,O=C(CCCCCNc1c(Nc2ccccc2)c(=O)c1=O)NO
2,9.4 nM,CC[C@H](Nc1c(NCCCCCC(=O)NO)c(=O)c1=O)c1ccccc1
3,4.4 nM,Cc1ccccc1Nc1c(NCCCCCC(=O)NO)c(=O)c1=O
4,0.39 nM,Cc1cccc(Nc2c(NCCCCCC(=O)NO)c(=O)c2=O)c1
5,2.5 nM,C[C@H](Nc1c(NCCCCCC(=O)NO)c(=O)c1=O)c1ccccc1

# Test system: HuT78
# Assay: Pro-apoptotic activity in human HUT78 cells after 18 hrs by caspase-Glo 3/7 assay
# Assay type: functional, cell-based
# Conditions: HuT78, 18 h
row,SMILES,EC50
1,COc1ccc(Nc2c(NC3(CCCCC(=O)NO)CCC3)c(=O)c2=O)cc1,12 nM
2,C[C@H](CCCCC(=O)NO)Nc1c(Nc2ccc(OC(F)(F)F)cc2)c(=O)c1=O,10 nM
3,CN(C)c1ccc(Nc2c(NCCCCCC(=O)NO)c(=O)c2=O)cc1,6.2 nM
4,CCC(CCCCC(=O)NO)Nc1c(Nc2ccc(C(F)(F)F)cc2)c(=O)c1=O (racemic),21 nM
5,COc1ccc(Nc2c(NC(C)(C)CCCCC(=O)NO)c(=O)c2=O)cc1,5.5 nM
6,Cc1ccc([C@H](C)Nc2c(NCCCCCC(=O)NO)c(=O)c2=O)cc1,130 nM
7,C[C@@H](CCCCC(=O)NO)Nc1c(Nc2ccc(N(C)C)cc2)c(=O)c1=O,44 nM
8,Cc1ccccc1[C@H](C)Nc1c(NCCCCCC(=O)NO)c(=O)c1=O,560 nM
9,C[C@H](CCCCC(=O)NO)Nc1c(Nc2ccc(N(C)C)cc2)c(=O)c1=O,13 nM
10,CC(CCCCC(=O)NO)Nc1c(Nc2ccc(C(F)(F)F)cc2)c(=O)c1=O (racemic),18 nM
11,COc1cc(Nc2c(NCCCCCC(=O)NO)c(=O)c2=O)ccc1N(C)C,290 nM

# Results, then the compound that gave them:
row,EC50,SMILES
1,28 nM,O=C(CCCCCNc1c(Nc2ccccc2)c(=O)c1=O)NO
2,170 nM,CC[C@H](Nc1c(NCCCCCC(=O)NO)c(=O)c1=O)c1ccccc1
3,280 nM,Cc1ccccc1Nc1c(NCCCCCC(=O)NO)c(=O)c1=O
4,26 nM,Cc1cccc(Nc2c(NCCCCCC(=O)NO)c(=O)c2=O)c1
5,220 nM,C[C@H](Nc1c(NCCCCCC(=O)NO)c(=O)c1=O)c1ccccc1
